Experimental data published in patent US20100267561A1, “HERBICIDAL PYRIDAZINONE DERIVATIVES” (priority 2007, published 2010).

Columns and labels:
Test in all cases: Test B pre-/postemergence plant response
Format in all cases: in vivo
[1] = system: large crabgrass (Digitaria sanguinalis)
How it was run: (§1)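 Seeds were sown and sprayed preemergence, while plants at 2 to 18 cm (1- to 4-leaf stage) got postemergence sprays. Compounds were formulated in a non-phytotoxic solvent mixture with surfactant. After 13 to 15 days in a greenhouse, injury was rated visually against untreated controls, 0 (no effect) to 100 (complete control).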

[2] = system: pigweed (Amaranthus retroflexus)
How it was run: as §1

[3] = system: common ragweed (Ambrosia elation)
How it was run: as §1

[4] = system: green foxtail (Setaria viridis)
How it was run: as §1

[5] = system: catchweed bedstraw (Galium aparine); details: Preemergence
How it was run: as §1

[6] = system: blackgrass (Alopecurus myosuroides)
How it was run: as §1

[7] = system: wild oat (Avena fatua)
How it was run: as §1

[8] = system: lambsquarters (Chenopodium album); details: Postemergence
How it was run: as §1

[9] = system: woolly cupgrass (Eriochloa villosa)
How it was run: as §1

[10] = system: kochia (Kochia scoparia); details: Postemergence
How it was run: as §1

[11] = system: corn (Zea mays)
How it was run: as §1

[12] = system: yellow nutsedge (Cyperus esculentus)
How it was run: as §1

[13] = system: velvetleaf (Abutilon theophrasti)
How it was run: as §1

[14] = system: cocklebur (Xanthium strumarium)
How it was run: as §1

[15] = Postemergence, 31 g ai/ha, scale 0 to 100, 0 no effect, 100 complete control
[16] = Postemergence, 62 g ai/ha, scale 0 to 100
[17] = Postemergence, 125 g ai/ha, scale 0 to 100
[18] = Postemergence, 250 g ai/ha, scale 0 to 100
[19] = Preemergence, 31 g ai/ha, 0 to 100 scale, 0 no effect, 100 complete control
[20] = Preemergence, 62 g ai/ha, scale 0 to 100
[21] = Preemergence, 125 g ai/ha, scale 0 to 100
[22] = Preemergence, 250 g ai/ha, scale 0 to 100
[23] = 31 g ai/ha, scale 0 to 100, 0 no effect, 100 complete control

CCc1cc(-c2ccc(C(F)(F)F)cc2)nn1-c1c(O)c(C)nn(C)c1=O [Compound 16]
Plant response rating, Crabgrass, Large [1, 15]: 95
Plant response rating, Crabgrass, Large [1, 16]: 95
Plant response rating, Crabgrass, Large [1, 17]: 100
Plant response rating, Crabgrass, Large [1, 18]: 100
Plant response rating, Crabgrass, Large [1, 19]: 0
Plant response rating, Crabgrass, Large [1, 20]: 0
Plant response rating, Crabgrass, Large [1, 21]: 20
Plant response rating, Crabgrass, Large [1, 22]: 40
Plant response rating, Pigweed [2, 15]: 0
Plant response rating, Pigweed [2, 16]: 0
Plant response rating, Pigweed [2, 17]: 0
Plant response rating, Pigweed [2, 18]: 0
Plant response rating, Pigweed [2, 20]: 0
Plant response rating, Pigweed [2, 21]: 0
Plant response rating, Pigweed [2, 22]: 0
Plant response rating, Ragweed [3, 15]: 0
Plant response rating, Ragweed [3, 16]: 0
Plant response rating, Ragweed [3, 17]: 0
Plant response rating, Ragweed [3, 18]: 0
Plant response rating, Ragweed [3, 19]: 0
Plant response rating, Ragweed [3, 20]: 0
Plant response rating, Ragweed [3, 21]: 0
Plant response rating, Ragweed [3, 22]: 0
Plant response rating, Foxtail, Green [4, 15]: 95
Plant response rating, Foxtail, Green [4, 16]: 98
Plant response rating, Foxtail, Green [4, 17]: 100
Plant response rating, Foxtail, Green [4, 18]: 100
Plant response rating, Foxtail, Green [4, 19]: 100
Plant response rating, Foxtail, Green [4, 20]: 100
Plant response rating, Foxtail, Green [4, 21]: 100
Plant response rating, Foxtail, Green [4, 22]: 100
Plant response rating, Galium ([5]; 31 g ai/ha, 0 to 100 scale, 0 no effect, 100 complete control): 0
Plant response rating, Galium ([5]; 62 g ai/ha, scale 0 to 100): 0
Plant response rating, Galium ([5]; 125 g ai/ha, scale 0 to 100): 0
Plant response rating, Galium ([5]; 250 g ai/ha, scale 0 to 100): 0
Blackgrass plant response rating ([6]; 250 g ai/ha, preemergence, 0-100 scale): 100
Plant response rating, Blackgrass [6, 15]: 98
Plant response rating, Blackgrass [6, 16]: 100
Plant response rating, Blackgrass [6, 17]: 100
Plant response rating, Blackgrass [6, 18]: 100
Plant response rating, Blackgrass [6, 19]: 100
Plant response rating, Blackgrass [6, 20]: 100
Plant response rating, Blackgrass [6, 21]: 100
Plant response rating, Oat, Wild [7, 15]: 95
Plant response rating, Oat, Wild [7, 16]: 100
Plant response rating, Oat, Wild [7, 17]: 100
Plant response rating, Oat, Wild [7, 18]: 100
Plant response rating, Oat, Wild [7, 19]: 90
Plant response rating, Oat, Wild [7, 20]: 95
Plant response rating, Oat, Wild [7, 21]: 98
Plant response rating, Oat, Wild [7, 22]: 100
Plant response rating, Lambsquarters [8, 23]: 0
Plant response rating, Lambsquarters ([8]; 62 g ai/ha, scale 0 to 100): 0
Plant response rating, Lambsquarters ([8]; 125 g ai/ha, scale 0 to 100): 0
Plant response rating, Lambsquarters ([8]; 250 g ai/ha, scale 0 to 100): 0
Plant response rating, Cupgrass, Woolly [9, 15]: 80
Plant response rating, Cupgrass, Woolly [9, 16]: 95
Plant response rating, Cupgrass, Woolly [9, 17]: 100
Plant response rating, Cupgrass, Woolly [9, 18]: 100
Plant response rating, Cupgrass, Woolly [9, 19]: 0
Plant response rating, Cupgrass, Woolly [9, 20]: 25
Plant response rating, Cupgrass, Woolly [9, 21]: 70
Plant response rating, Cupgrass, Woolly [9, 22]: 95
Plant response rating, Kochia [10, 23]: 0
Plant response rating, Kochia ([10]; 62 g ai/ha, scale 0 to 100): 65
Plant response rating, Kochia ([10]; 125 g ai/ha, scale 0 to 100): 98
Plant response rating, Kochia ([10]; 250 g ai/ha, scale 0 to 100): 100
Plant response rating, Corn [11, 15]: 98
Plant response rating, Corn [11, 16]: 98
Plant response rating, Corn [11, 17]: 100
Plant response rating, Corn [11, 18]: 100
Plant response rating, Corn [11, 19]: 0
Plant response rating, Corn [11, 20]: 100
Plant response rating, Corn [11, 21]: 100
Plant response rating, Corn [11, 22]: 100
Plant response rating, Nutsedge, Yellow [12, 15]: 0
Plant response rating, Nutsedge, Yellow [12, 16]: 0
Plant response rating, Nutsedge, Yellow [12, 17]: 0
Plant response rating, Nutsedge, Yellow [12, 18]: 0
Plant response rating, Nutsedge, Yellow [12, 19]: 0
Plant response rating, Nutsedge, Yellow [12, 20]: 0
Plant response rating, Nutsedge, Yellow [12, 21]: 0
Plant response rating, Nutsedge, Yellow [12, 22]: 20
Plant response rating, Velvetleaf [13, 15]: 0
Plant response rating, Velvetleaf [13, 16]: 0
Plant response rating, Velvetleaf [13, 17]: 0
Plant response rating, Velvetleaf [13, 18]: 0
Plant response rating, Velvetleaf [13, 19]: 0
Plant response rating, Velvetleaf [13, 20]: 0
Plant response rating, Velvetleaf [13, 21]: 0
Plant response rating, Velvetleaf [13, 22]: 0
Plant response rating, Cocklebur [14, 15]: 0
Plant response rating, Cocklebur [14, 16]: 0
Plant response rating, Cocklebur [14, 17]: 0
Plant response rating, Cocklebur [14, 18]: 0
Plant response rating, Cocklebur [14, 19]: 0
Plant response rating, Cocklebur [14, 20]: 0
Plant response rating, Cocklebur [14, 21]: 0
Plant response rating, Cocklebur [14, 22]: 0
